These results are taken from BigSolDB 2.1.

For the data set the following is noted: 298.15 K.

As usually defined, the solubility (mole fraction) is the moles of solute divided by all moles in the saturated solution. On to `COc1ccc2c(c1)c(CC(=O)O)c(C)n2C(=O)c1ccc(Cl)cc1`, for which the solubility (mole fraction) runs as follows: (in acetone) 0.0234; (in acetonitrile) 0.00239; (in chlorobenzene) 0.0023; (in chloroform) 0.00876; (in cyclohexane) 1.87e-05; (in ethanol) 0.00441. The solubility (mole fraction) turned out to be 0.0111 (in ethyl acetate); 0.000509 (in ethylene glycol); 0.00465 (in isopropanol); 0.00228 (in methanol); 6.13e-07 (in n-heptane); 4.84e-07 (in n-hexane). Further, the solubility (mole fraction) runs as follows: (in n-pentane) 3.31e-07; (in n-propanol) 0.00433; (in tetrachloromethane) 4.2e-05; (in toluene) 0.000908.

`c1ccc2cc3ccccc3cc2c1`: the solubility (mole fraction) came to 0.00318 (in acetone); 0.000765 (in acetonitrile); 0.00946 (in chlorobenzene); 0.00995 (in chloroform); 0.000428 (in ethanol); 0.0012 (in n-hexane). The same compound registered a solubility (mole fraction) (in tetrachloromethane) of 0.00481.

On to `c1ccc2cc3cc4ccccc4cc3cc2c1`, for which the solubility (mole fraction) runs as follows: (in acetone) 3.27e-05; (in acetonitrile) 7.97e-06; (in chlorobenzene) 0.00014; (in chloroform) 0.000132; (in ethanol) 6.91e-06; (in n-hexane) 1.5e-05. The same compound yielded a solubility (mole fraction) (in tetrachloromethane) of 4.61e-05.

As for `c1ccc2c(c1)c1ccccc1n2-c1ccc(-c2ccc(-n3c4ccccc4c4ccccc43)cc2)cc1`, the solubility (mole fraction) (in acetone) stood at 0.000153; the solubility (mole fraction) (in acetonitrile) is 7.54e-06; the solubility (mole fraction) (in chlorobenzene) amounted to 0.00491; the solubility (mole fraction) (in chloroform) came to 0.0083; the solubility (mole fraction) (in ethanol) is 2.25e-06; the solubility (mole fraction) (in n-hexane) stood at 9.41e-06. Under “in tetrachloromethane”, this compound registered a solubility (mole fraction) of 0.000997.

For the compound `c1cc2cccc3c4cccc5cccc(c(c1)c23)c54`, the solubility (mole fraction) is, setting by setting: (in acetone) 0.000301; (in acetonitrile) 4.68e-05; (in chlorobenzene) 0.00177; (in chloroform) 0.00134; (in ethanol) 2.42e-05; (in n-hexane) 5.53e-05. Further, for the setting “in tetrachloromethane”, the solubility (mole fraction) is 0.000444.

As to `O=C(O)c1cccnc1Nc1cccc(C(F)(F)F)c1`, the solubility (mole fraction) runs as follows: (in acetone) 0.0288; (in acetonitrile) 0.00131; (in chlorobenzene) 0.000297; (in chloroform) 0.00166; (in ethanol) 0.0138; (in n-hexane) 5.35e-06. Besides, the solubility (mole fraction) (in tetrachloromethane) is 7.06e-05.

`c1ccc(N(c2ccc(-c3ccc(N(c4ccccc4)c4cccc5ccccc45)cc3)cc2)c2cccc3ccccc23)cc1` gave a solubility (mole fraction) (in acetone) of 2.11e-05; a solubility (mole fraction) (in acetonitrile) of 1.56e-06; a solubility (mole fraction) (in chlorobenzene) of 0.00131; a solubility (mole fraction) (in chloroform) of 0.00268; a solubility (mole fraction) (in ethanol) of 5.59e-07; a solubility (mole fraction) (in n-hexane) of 3.15e-06. Besides, the solubility (mole fraction) (in tetrachloromethane) amounted to 0.000234.
